Laboratory results taken from the supplement of paper PMC13380429.

Assays:
Settings in all cases: 72 h
[1] = tested on: Calu-3; assay: relative viability EC50 (midpoint between 100% and the lowest measured viability); higher = less toxic
[2] = tested on: HepG2; assay: as above
[3] = tested on: U2OS; assay: as above
[4] = tested on: Caco-2; assay: as above
[5] = tested on: Vero E6; assay: as above
[6] = tested on: Calu-3; assay: cell viability relative to DMSO; higher = less toxic
[7] = tested on: HepG2; assay: as above
[8] = tested on: U2OS; assay: as above
[9] = tested on: Caco-2; assay: as above
[10] = tested on: Vero E6; assay: as above
[11] = tested on: Calu-3; assay: drug sensitivity score (DSS) for viability; higher = more toxic; extreme values may be limits of the assay
[12] = tested on: HepG2; assay: as above
[13] = tested on: U2OS; assay: as above
[14] = tested on: Caco-2; assay: as above
[15] = tested on: Vero E6; assay: as above

| Compound | relative viability EC50 [1] | relative viability EC50 [2] | relative viability EC50 [3] | relative viability EC50 [4] | relative viability EC50 [5] | cell viability ([6]; 1 nM) | cell viability ([6]; 10 nM) | cell viability ([6]; 100 nM) | cell viability ([6]; 1000 nM) | cell viability ([6]; 10000 nM) | cell viability ([7]; 1 nM) | cell viability ([7]; 10 nM) | cell viability ([7]; 100 nM) | cell viability ([7]; 1000 nM) | cell viability ([7]; 10000 nM) | cell viability ([8]; 1 nM) | cell viability ([8]; 10 nM) | cell viability ([8]; 100 nM) | cell viability ([8]; 1000 nM) | cell viability ([8]; 10000 nM) | cell viability ([9]; 1 nM) | cell viability ([9]; 10 nM) | cell viability ([9]; 100 nM) | cell viability ([9]; 1000 nM) | cell viability ([9]; 10000 nM) | cell viability ([10]; 1 nM) | cell viability ([10]; 10 nM) | cell viability ([10]; 100 nM) | cell viability ([10]; 1000 nM) | cell viability ([10]; 10000 nM) | drug sensitivity score [11] | drug sensitivity score [12] | drug sensitivity score [13] | drug sensitivity score [14] | drug sensitivity score [15] |
| --- | --- | --- | --- | --- | --- | --- | --- | --- | --- | --- | --- | --- | --- | --- | --- | --- | --- | --- | --- | --- | --- | --- | --- | --- | --- | --- | --- | --- | --- | --- | --- | --- | --- | --- | --- |
| CC(C)[C@@H]1CC[C@@H](C)C[C@H]1O [levomenthol] | > 10 µM | > 10 µM | > 10 µM | > 10 µM | > 10 µM | 98% | 92.9% | 88.9% | 96.8% | 90.5% | 102% | 92.8% | 101% | 104% | 103% | 105% | 101% | 101% | 101% | 95.5% | 93.3% | 84.4% | 84.7% | 94.4% | 104% | 95.3% | 108% | 101% | 91.2% | 94.9% | 0 | 0 | 0 | 0 | 0 |
| CC1(C)O[C@H]2CC(=O)OC[C@]23[C@H]2CC[C@@]4(C)[C@H](c5ccoc5)OC(=O)[C@H]5O[C@]54[C@]2(C)C(=O)C[C@@H]13 [limonin] | > 10 µM | > 10 µM | > 10 µM | > 10 µM | > 10 µM | 104% | 89.5% | 109% | 99.6% | 102% | 102% | 105% | 91.5% | 111% | 97.2% | 95.6% | 98.6% | 107% | 99% | 100% | 97.5% | 95.8% | 106% | 98.5% | 105% | 97.1% | 97.1% | 93.7% | 98.6% | 104% | 0 | 0 | 0 | 0 | 0 |
| Nc1ccc(O)c(C(=O)O)c1 [mesalazine] | > 10 µM | > 10 µM | > 10 µM | > 10 µM | > 10 µM | 109% | 100% | 107% | 96.5% | 102% | 112% | 100% | 103% | 104% | 97.3% | 103% | 101% | 103% | 96.8% | 104% | 112% | 98.6% | 109% | 97.7% | 100% | 105% | 104% | 103% | 102% | 92.2% | 0 | 0 | 0 | 0 | 0 |
| CCC1(CC)C(=O)NC(=O)N(C)C1=O [metharbital] | > 10 µM | > 10 µM | > 10 µM | > 10 µM | > 10 µM | 110% | 92.6% | 110% | 98.4% | 95% | 91.8% | 104% | 95.9% | 102% | 103% | 100% | 93.4% | 99.1% | 92.9% | 97.1% | 94.3% | 97.7% | 104% | 102% | 93.1% | 93% | 96.8% | 94.1% | 92.3% | 103% | 0 | 0 | 0 | 0 | 0 |
| CN1C(CCl)Nc2cc(Cl)c(S(N)(=O)=O)cc2S1(=O)=O (stereo not given) [methyclothiazide] | > 10 µM | > 10 µM | > 10 µM | > 10 µM | > 10 µM | 103% | 91.8% | 97.9% | 105% | 108% | 96.3% | 96.1% | 106% | 104% | 105% | 104% | 96.9% | 101% | 98.4% | 102% | 101% | 103% | 104% | 103% | 94.9% | 94.3% | 96.6% | 94.8% | 99.4% | 99.7% | 0 | 0 | 0 | 0 | 0 |
| O=C(O)Cc1cccc2c(=O)cc(-c3ccccc3)oc12 [mitoflaxone] | > 10 µM | > 10 µM | > 10 µM | > 10 µM | > 10 µM | 96% | 102% | 97% | 95.8% | 112% | 98.3% | 92.3% | 93.2% | 103% | 114% | 99.5% | 98% | 97.3% | 102% | 104% | 86% | 101% | 89.6% | 104% | 112% | 96.9% | 99.8% | 95.7% | 94.9% | 107% | 0 | 0 | 0 | 0 | 0 |
| NC/C(=C/F)CCc1ccc(F)cc1 [mofegiline] | > 10 µM | > 10 µM | > 10 µM | > 10 µM | > 10 µM | 102% | 97.7% | 102% | 104% | 88.4% | 98% | 91.5% | 87.9% | 90% | 97.4% | 98.6% | 99.3% | 95.7% | 96.2% | 96.3% | 89.5% | 96.7% | 85.8% | 90.4% | 92.4% | 92.5% | 102% | 90.5% | 91.7% | 95% | 0 | 0 | 0 | 0 | 0 |
| Oc1ccc(OCc2ccccc2)cc1 [monobenzone] | > 10 µM | > 10 µM | > 10 µM | > 10 µM | > 10 µM | 97.5% | 95.5% | 94.6% | 98.9% | 94.5% | 91.6% | 94.9% | 109% | 103% | 90.2% | 107% | 96.9% | 94.9% | 102% | 110% | 99.2% | 92.6% | 103% | 107% | 88.3% | 95.8% | 97.4% | 97.3% | 100% | 100% | 0 | 0 | 0 | 0 | 0 |
| CN(C(=O)/C=C/c1ccoc1)[C@@H]1CC[C@@]2(O)[C@H]3Cc4ccc(O)c5c4[C@@]2(CCN3CC2CC2)[C@H]1O5 [nalfurafine] | > 10 µM | > 10 µM | > 10 µM | > 10 µM | > 10 µM | 92.2% | 103% | 106% | 96.8% | 91.3% | 102% | 104% | 95.5% | 97.7% | 102% | 100% | 99.8% | 100% | 103% | 105% | 104% | 92.9% | 99% | 107% | 104% | 90.6% | 101% | 89.5% | 95.6% | 102% | 0 | 0 | 0 | 0 | 0 |
| Cn1cc(C(=O)c2cccc3ccccc23)cc1C(=O)O [napirimus] | > 10 µM | > 10 µM | > 10 µM | > 10 µM | > 10 µM | 98.7% | 104% | 100% | 101% | 104% | 101% | 97.9% | 103% | 99.8% | 94.8% | 104% | 100% | 101% | 98.3% | 98.4% | 99.3% | 92% | 95.4% | 96.5% | 85.6% | 92.9% | 99.7% | 95.2% | 105% | 99% | 0 | 0 | 0 | 0 | 0 |
| Cn1c(NCCN(CCO)CCCc2ccc([N+](=O)[O-])cc2)cc(=O)n(C)c1=O [nifekalant] | > 10 µM | > 10 µM | > 10 µM | > 10 µM | > 10 µM | 96.2% | 103% | 104% | 110% | 95.3% | 109% | 106% | 94% | 86.1% | 109% | 95.1% | 94.3% | 98.9% | 97.7% | 99.4% | 107% | 96.7% | 86.9% | 90.8% | 92.5% | 89.8% | 102% | 91.6% | 102% | 104% | 0 | 0 | 0 | 1.8 | 0 |
| CNCCC=C1c2ccccc2C=Cc2ccccc21 [norcyclobenzaprine] | > 10 µM | > 10 µM | > 10 µM | > 10 µM | > 10 µM | 109% | 96.6% | 103% | 105% | 84.8% | 94.7% | 93.4% | 102% | 98.3% | 89.3% | 102% | 98.1% | 100% | 106% | 100% | 94.2% | 96.4% | 97.7% | 102% | 90.5% | 95.9% | 97.5% | 92.6% | 94.5% | 95.2% | 0.1 | 0 | 0 | 0 | 0 |
| C[C@@H]1CC(=O)c2c(ccc3c2C(=O)c2cccc(O)c2C3=O)C1 [ochromycinone] | > 10 µM | > 10 µM | > 10 µM | > 10 µM | > 10 µM | 100% | 104% | 103% | 104% | 92.8% | 87.4% | 91% | 96.6% | 96.5% | 76% | 101% | 100% | 93.9% | 99.7% | 99.9% | 107% | 96.1% | 99.6% | 110% | 112% | 100% | 100% | 104% | 93.3% | 85.8% | 0 | 1.4 | 0 | 0 | 0.6 |
| O=C(O)CCc1nc(-c2ccccc2)c(-c2ccccc2)o1 [oxaprozin] | > 10 µM | > 10 µM | > 10 µM | > 10 µM | > 10 µM | 98.3% | 92.1% | 102% | 96.8% | 102% | 104% | 99.1% | 107% | 109% | 92.1% | 102% | 95.4% | 101% | 94.2% | 96.8% | 94.7% | 97.1% | 100% | 108% | 101% | 99% | 97.5% | 94.8% | 104% | 97.2% | 0 | 0 | 0 | 0 | 0 |
